# Assays:
# DU145 cell line [1] = test: Apoptotic indices by DAPI staining, confocal microscopy; assay type: cell-based, human; details: DU145, 24, 48 and 72 h
# Experimental: The Annexin-V-FLUOS Staining Kit (Roche Diagnostics GmbH, Mannheim, Germany) was used for the detection and quantification of the apoptotic cells. This kit uses a dual-staining protocol in which the apoptotic cells are stained with annexin-V (green fluorescence) and the necrotic cells are stained with propidium iodide (PI, red fluorescence). Briefly, DU145 cell line was grown at a density of 1×10^6 cells in triplicate culture plates and then treated with D-allose (0, 20 and 40 mM) for 48 and 72 h. The cells were treated with trypsin and harvested with PBS and processed for labeling with annexin-V and PI by the use of the kit according to the manufacturer's protocol. The fluorescence was measured by flow cytometric analysis, performed on a FACSCalibur (Becton Dickinson, San Jose, Calif., USA) using 488 nm excitation and a 515 nm band pass filter for fluorescein detection and a filter [600 nm for PI detection (FL1: Annexin-V-FLUOS; FL2: PI). Further, apoptotic indices were measured by analysis of fragmented or scattered nuclei and condensed chromosome as the stringent morphological criteria of apoptosis, detectable by confocal microscopy on cells stained with DNA-intercalating dye […] (DAPI). For this purpose, DU145 and PrEC cell lines were exposed to 0, 20 and 40 mM of D-allose for up to 72 h, stained with DAPI (1 μg/ml in methanol), mounted with Prolong Antifade reagent (Molecular Probes, Eugene, Oreg., USA), and images were acquired by use of a confocal laser scanning microscope (Fluoview FV 1000, Olympus, Japan). The numbers of apoptotic nuclei per 100 cells were counted from the five high power fields/slide and apoptotic indices were expressed as a percentage of the untreated controls in each cell line, considering the value as 100%. DU145 cell line was also treated with 0-40 mM of D-glucose for determination of apoptotic indices as mentioned above.
# DU145 cell line [2] = test: Cell viability / cell growth, MTT assay; assay type: cell-based, human; details: DU145, 0-40 mM, compared to control
# Experimental: DU145 (human HRPC cell line, derived from a patient with brain metastasis) and PrEC (human normal prostate epithelial cell line) cell lines were obtained from Korea Cell Line Bank (KCLB, Seoul, South Korea). DU145 and PrEC cell lines were grown in triplicate culture plates containing RPMI-1640 (HyClone, Logan, Utah, USA) and Dulbecco's Modified Eagle's Medium (HyClone, Logan, Utah, USA) respectively, and kept in a humidified atmosphere containing 5% CO2 at 37° C. for 72 h. The media were supplemented with 10% heat-inactivated fetal bovine serum (HyClone, Logan, Utah, USA), 1% antibio-antimicotic solution containing 10,000 units/ml of penicillin and 10 mg/ml of streptomycin (HyClone, Logan, Utah, USA), HEPES, sodium bicarbonate, p-aminobenzoic acid and insulin (complete culture media). D-Allose was purchased from Sigma (St. Louis, Mo., USA) and dissolved at a concentration of 1 M in sterile phosphate-buffered saline (PBS), and was further sterilized by filtration. To examine the dose- and time-dependent effects, the cell lines (70-80% confluent) were treated with 0-40 mM of D-allose for up to 72 h, whereas without D-allose treated cell lines (0 mM) were considered as control. DU145 cell line was also treated with 0-40 mM of D-glucose. All the other chemicals used in the work were procured from Sigma (St. Louis, Mo., USA), unless otherwise specified.
# The logarithmic growth phase of DU145 and PrEC cell lines were taken for growth assay using 3-[4,5-dimethylthiazol-2-yl]-2,5-diphenyl tetrazolium bromide (MTT). […] After incubation for the specified time at 37° C. in a humidified 5% CO2 incubator, cell viability was determined. […] To achieve solubilization of formazan crystal formed in viable cells, DMSO was added to each well, and the absorbance was recorded on a microplate reader at 595 nm wavelength. The effect of sugars on growth inhibition was assessed as percent cell viability where control cells were taken as 100% viable.
smiles,measurement,setting,value
"O=C[C@H](O)[C@@H](O)[C@H](O)[C@H](O)CO [D-glucose, reference compound]","programmed cell death (apoptotic indices, DAPI staining)",DU145 cell line [1],no remarkable effect
same,cell growth (MTT assay),DU145 cell line [2],significant increase of cell growth in a dose-dependent manner

# — patent US20110071094A1, “(D)-ALLOSE INDUCING PROGRAMMED CELL DEATH IN HORMONE REFRACTORY PROSTATE CANCER LINES” (INDUSTRY-ACADEMIC COOPERATION FOUDATION, GYEONGSANG …, priority 2008, published 2011)
